Assay [1] addresses α-glucosidase. Put plainly: In vitro α-glucosidase-inhibitory assay. The format is biochemical.
Description: The alpha-glucosidase-inhibitory potency of the fractions was assessed by determining whether the fractions can inhibit the activity of α-glucosidase, a carbohydrate-digesting enzyme. The fractions were tested at a concentration of 60 µg/mL.
A previous method [66] was adopted to perform the glucosidase inhibition assay. It was performed on a 96-well transparent plate. […] Next, 50 µL of 10 mM 4-nitrophenyl-β-D-glucopyranoside substrate solution (dissolved in 100 mM phosphate buffer, pH 6.8) was added, and incubation continued for an additional 20 min under the same incubation conditions. After incubation, the enzyme-substrate reaction was stopped by adding 100 µL of a 0.1 M Na2CO3 solution, and absorbance was measured at 405 nm. The absorbances were blanked using the sample and solvent blanks. The enzyme inhibition activity of the samples was computed using the formula below: Enzyme inhibition activity%=Absorbance of control−Absorbance of test/Absorbance of control×100
The target of assay [2] is T1, GABAA receptor subtype (α1, β2, and γ2S subunits) (Homo sapiens, UniProt P14867+P18507+P47870).
T1 construct: expressed in transfected cells; host or cells: Xenopus laevis oocytes (Ecocyte), cRNA-injected
Nature of the assay: Functional GABAA receptor assay: modulation of GABA-induced chloride currents (IGABA), two-microelectrode voltage clamp in Xenopus laevis oocytes. It is filed as cell-based. To be noted: 100 µg/mL, isolated compounds; for IGABA potentiation: GABA EC10, mean ± S.E.M. Here is the method: The effects of both fractions and isolated compounds from the PS and PL extracts were determined on GABA-induced chloride currents through the predominantly occurring GABAA receptor subtype (comprising α1, β2, and γ2S subunits). GABAA receptors were heterologously expressed in Xenopus laevis (Grade I–II) oocytes as described previously. The fractions and compounds were tested at a concentration of 100 µg/mL. For the fractions, a 100 µg/mL concentration was used in assessing their IGABA modulatory potential because previous studies have also used the same concentration to assess the IGABA modulatory potential of plant extracts and/or fractions in a similar experimental model. For the compounds, we tested their IGABA modulatory potential at 100 µg/mL to maintain a consistent concentration as the fractions, which provides a comparative perspective about the efficacy of the compounds relative to the fractions.
In brief, defolliculated oocytes were obtained from Ecocyte (Dortmund, Germany) and injected with 50–75 nL of nuclease-free water containing a mixture (ratio 1:1:10) of cRNAs encoding for the major GABAA receptor subtype (α1, β2, and γ2S; concentrations ranging between 100 and 2000 ng/μL/subunit) using a Nanoject III microinjector (Drummond Scientific Company, Broomall, PA, USA). Oocytes were stored at 18 °C in ND96 solution composed of 90 mM NaCl, 1 mM KCl, 1 mM MgCl2·6H2O, 1 mM CaCl2, and 5 mM 2-(4-(2-hydroxyethyl)-1-piperazinyl)ethanesulfonic acid (HEPES), with pH adjusted to 7.4 using 1 M NaOH and supplemented with 100 U/mL penicillin and 10 µg/mL streptomycin. Functional characterisation was then carried out 1–3 days post-injection using two-microelectrode voltage-clamp (TEVC) recordings holding oocytes at −70 mV using a TURBO TEC 03C amplifier (NPI Electronic, Tamm, Germany) connected to an Axon Digidata 1440A digitiser (Molecular Devices, Sunnyvale, CA, USA). Data acquisition was performed using pCLAMP software version 10.3 (Molecular Devices), and current traces were analysed offline. Microelectrodes were filled with 2 M KCl and had resistances between 1 and 3 MΩ. GABA and test compounds were applied using a TECAN Miniprep 60 (npi electronic, Tamm, Germany), permitting semi-automation of the experiments coupled to a fast perfusion system. The oocyte-containing chamber was perfused with 200 µL GABA-containing solutions at a volume rate between 150 and 200 µL/s to elicit chloride currents through GABAA receptors (IGABA). Modulation of IGABA by the compounds was measured at a GABA concentration eliciting 10% of the maximal current amplitude (EC10), peak amplitudes were measured, and the effect was calculated using the following formula: IGABA potentiation%=Amplitude IGABA−sample−Amplitude IGABA−control/Amplitude IGABA−control×100
IGABA+Sample is the current induced by co-application of GABA and the tested sample, while IGABA−control is the current induced by application of GABA alone.

pIC50: −log10 of the molar value.

T1 sequence (P14867 28-456): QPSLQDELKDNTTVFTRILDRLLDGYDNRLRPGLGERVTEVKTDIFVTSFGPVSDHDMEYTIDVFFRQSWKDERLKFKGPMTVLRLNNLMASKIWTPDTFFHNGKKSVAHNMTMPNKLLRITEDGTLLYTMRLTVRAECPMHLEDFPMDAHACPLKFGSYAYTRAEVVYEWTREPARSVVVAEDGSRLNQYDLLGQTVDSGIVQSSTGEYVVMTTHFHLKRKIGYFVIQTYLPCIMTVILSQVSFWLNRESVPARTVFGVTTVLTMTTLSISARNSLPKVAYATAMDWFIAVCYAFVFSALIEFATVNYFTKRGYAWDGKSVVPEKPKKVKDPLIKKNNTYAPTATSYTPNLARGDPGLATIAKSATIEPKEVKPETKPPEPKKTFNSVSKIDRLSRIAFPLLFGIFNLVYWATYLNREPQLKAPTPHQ
T1 sequence (P47870 25-512 limits assumed): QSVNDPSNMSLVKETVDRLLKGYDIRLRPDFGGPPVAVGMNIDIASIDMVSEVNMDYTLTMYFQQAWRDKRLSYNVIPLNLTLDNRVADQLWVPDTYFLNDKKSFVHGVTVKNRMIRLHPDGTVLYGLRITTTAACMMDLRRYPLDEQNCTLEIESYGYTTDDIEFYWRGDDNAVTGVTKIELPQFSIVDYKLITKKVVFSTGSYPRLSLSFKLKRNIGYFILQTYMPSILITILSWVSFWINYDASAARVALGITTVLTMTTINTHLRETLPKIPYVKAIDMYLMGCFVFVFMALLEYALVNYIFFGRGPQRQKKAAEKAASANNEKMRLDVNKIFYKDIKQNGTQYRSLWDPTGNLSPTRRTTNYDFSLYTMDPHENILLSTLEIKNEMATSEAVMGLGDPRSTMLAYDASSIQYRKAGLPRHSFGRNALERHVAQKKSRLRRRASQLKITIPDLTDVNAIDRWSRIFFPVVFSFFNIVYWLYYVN
T1 sequence (P18507 40-467 isoform P18507-1 limits assumed): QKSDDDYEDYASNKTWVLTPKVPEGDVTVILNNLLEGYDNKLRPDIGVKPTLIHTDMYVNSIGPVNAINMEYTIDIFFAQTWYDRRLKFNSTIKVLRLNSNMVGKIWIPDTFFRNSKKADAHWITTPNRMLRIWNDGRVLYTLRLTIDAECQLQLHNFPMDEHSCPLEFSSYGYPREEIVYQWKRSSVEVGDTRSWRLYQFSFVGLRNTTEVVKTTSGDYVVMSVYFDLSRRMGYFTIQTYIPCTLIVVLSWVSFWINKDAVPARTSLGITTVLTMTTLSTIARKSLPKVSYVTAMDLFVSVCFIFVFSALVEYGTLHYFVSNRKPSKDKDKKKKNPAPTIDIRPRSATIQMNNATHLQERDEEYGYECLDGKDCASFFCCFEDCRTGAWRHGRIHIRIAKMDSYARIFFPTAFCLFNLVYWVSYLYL

The pIC50 is the IC50 on a negative log10 scale, so that one unit is a factor of ten. As for `COc1cc([C@@H]2Oc3c(OC)cc4c(=O)c5ccccc5oc4c3O[C@H]2CO)ccc1O` (relative stereo) [Compound 3, trans-3-(4-hydroxy-3-methoxyphenyl)-2-(hydroxymethyl)-5-methoxy-2,3-dihydro-7H-[1,4]dioxino[2,3-c]xanthen-7-one], in assay [1] (dose-dependent assay 1.5625–100 µM, isolated compound and acarbose, read-out: α-glucosidase inhibition IC50), the pIC50 was 4.35. In assay [2], the IGABA potentiation was 5 ± 7% and the “Effect on IGABA (in words)” value is “inactive”.
For the molecule `C[C@H]1O[C@H](O[C@H]2[C@H](O)[C@@H](O)[C@@H](O[C@H]3[C@H](O)[C@@H](O)C(O)O[C@@H]3CO)O[C@@H]2CO)[C@H](O)[C@@H](O)[C@@H]1N[C@H]1C=C(CO)[C@@H](O)[C@H](O)[C@H]1O` (some centres unmarked) [Acarbose, acarbose, reference compound], the “Glucosidase-Inhibitory Activity (%)” value in assay [1] (tested at 60 μg/mL, fractions from MeOH extract of PS (plant stem) and acarbose, NAD = no activity detected) was 94.3 ± 1.86%.
With `COc1cc2c(=O)c3ccccc3oc2c(O)c1OC` [Compound 1, 4-hydroxy-2,3-dimethoxy-9H-xanthen-9-one], in assay [2], the IGABA potentiation is listed as 65 ± 13% and the “Effect on IGABA (in words)” value is “significantly enhanced IGABA”.
Regarding `COc1cc2c(=O)c3ccccc3oc2c(OC)c1O` [Compound 2, 3-hydroxy-2,4-dimethoxy-9H-xanthen-9-one], in assay [2], the IGABA potentiation was 36 ± 9% and the “Effect on IGABA (in words)” value is given as “significantly enhanced IGABA”.

The values above are taken from publication PMC12430133, “GABAergic and α-Glucosidase-Inhibitory Potentials of Fractions and Isolated Xanthones from Hypericum revolutum Vahl subsp. revolutum” (Molecules, 2025).
